In publication PMC8907207, “Multiplex quantification of C-terminal alpha-1-antitrypsin peptides provides a novel approach for characterizing systemic inflammation” (Scientific Reports, 2022):
Ends that are not written are not given here.

How the values were obtained:
[1] = Benchtop stability of QC samples at room temperature; format: in vitro ADME; conditions: QC in 70 g/L albumin in PBS, 60 min. at room temperature, LC-MS/MS
Experimental: (§1) Stability of analytes in processed samples was determined at six independent days for a time span of 20 h in the autosampler. Deviations of standing samples to freshly measured samples were below 19% at the LLOQ and below 9% for other QC levels for each analyte, respectively (Additional file 4). Stability of analytes in biological matrix was determined by consecutive cycles of freezing and thawing as well as extended intervals at room temperature from thawing to processing (approximately one hour).
(§2) Lyophilized authentic peptide standards were dissolved and diluted in a 70 g/L Albumin (from human serum, lyophilized, ≥ 99%, Sigma-Aldrich) in PBS (Sigma-Aldrich, St. Louis, MO, USA) solution. Internal standards C37^IS and C42^IS were dissolved in Milli-Q water (Millipore, Brussels, Belgium) containing 0.1% (v/v) formic acid (≥ 95%, Sigma-Aldrich) whereas C22^IS was only dissolved in ultrapure water. Mixtures of CAAPs used as calibration standards (calibrants) and quality control samples (QCs) were prepared as stock solution to a final concentration of 14 µM, respectively, (expect C40^SNP which was 5 µM) with subsequent serial dilutions. Calibrants and QCs were obtained from separate serial dilutions. Internal standard solution was prepared by adding equal volumes of each IS yielding a final concentration of 0.8 µM, respectively. All samples used for method development and validation were prepared and stored in 0.5 mL Protein LoBind Tubes (Eppendorf AG, Hamburg, Germany) in aliquots at − 80 °C until use.
(§3) Working range of calibrants was defined based on CAAPs detected in samples from healthy donors (set to approximate lower limit of quantification) and in samples from septic patients (set to middle to high calibration range) which were re-analyzed from a previously work[46]. Nine calibrants were used in total ranging from 0.01 µM to 1.5 µM thereby covering more than two orders of magnitude in concentration. Linearity was assessed determining mean linear regression coefficients of each calibration curve from 0.01 to 1.5 µM in eight independent analytical runs. However, respective LLOQs (lower limit of quantification) and ULOQs (upper limit of quantification) were defined individually based on natural occurrence (see above) and results from validation parameter directly affected individual working ranges (carry-over, specificity). Four QC samples were prepared and measured in total (QC1, QC2, QC3, and QC4) to cover the entire range of calibration. However, three QCs for each of the respective analytes were used for method validation. Carry-over was determined measuring pure albumin solutions prepared without internal standards (but equal amount and concentration of water/formic acid solution as regular internal standard solution, “blank albumin sample”) directly after the respective highest calibrants. Peak areas were compared to peak areas from respective LLOQ samples (prepared with regular internal standard solution). Specificity was assessed using single compounds at respective highest calibrant level which were prepared and calculated as described for carry-over. The specificity of analytes towards internal standards was determined using pure albumin solution with internal standard (“zero albumin sample”). Accuracy and precision was determined by back-calculated concentrations from repeated measurements of the same QC samples during one analytical run (within-run repeatability, n = 5) and from freshly prepared samples during five independent analytical runs (between-run, n = 5). Due to the unavailability of analyte-free biological matrix, selectivity of analytes were assessed in pure albumin solution containing internal standards. Matrix effects were determined calculating recovery rates and precision of each compound in human blood samples. Direct comparison between different anticoagulants (EDTA, lithium-heparin) and serum was performed using whole blood from the same human donor. […]

[2] = Freeze/thaw stability of QC samples; format: in vitro ADME; conditions: QC in 70 g/L albumin in PBS, two cycles of freezing and thawing, LC-MS/MS
Experimental: as §1, §2, §3

[3] = QC2 (0.025 µM; C40^SNP see Table 1)
[4] = QC3 (0.3 µM; C40^SNP 0.1073 µM)

benchtop stability, accuracy (mean of n=3) [1, 3]	benchtop stability, deviation from freshly processed QCs (mean of n=3) [1, 3]	benchtop stability, accuracy (mean of n=3) [1, 4]	benchtop stability, deviation from freshly processed QCs (mean of n=3) [1, 4]	freeze/ thaw stability, accuracy (mean of n=3) [2, 3]	freeze/ thaw stability, deviation from freshly processed QCs (mean of n=3) [2, 3]	freeze/ thaw stability, accuracy (mean of n=3) [2, 4]	freeze/ thaw stability, deviation from freshly processed QCs (mean of n=3) [2, 4]	Sequence
101%	-1%	98%	-2%	104%	2%	99%	-2%	SIPPEVKFNKPFVFLMIDQNTKSPLFMGKVVNPTQK [C36^SNP]
106%	4%	98%	-1%	106%	4%	98%	-1%	SIPPEVKFNKPFVFLMIEQNTKSPLFMGKVVNPTQK [C36^WT]
